Patent US9351998B2, “Methods of nourishing animals” (MariCal, Inc., priority 2008, dated 2016)

How the values were obtained:
avian CaSR = test: FURA2 ratio imaging fluorimetry of HEK cells stably expressing avian (chicken) CaSR; format: cell-based
Excerpt: All methods and equipment utilized to perform experiments on HEK cells have been reported previously (Gama, L. and Breitwieser, G. E. 1998. A carboxyl-terminal domain controls the cooperativity for extracellular Ca2+ activation of the human calcium sensing receptor. A study with receptor-green fluorescent protein fusions. J. Biol. Chem. 273, 29712-29718; Bai, M., Quinn, S., Trivedi, S., Kifor, 0., Pearce, S. H., Pollak, M. R., Krapcho, K., Hebert, S. C. and Brown, E. M. 1996. Expression and characterization of inactivating and activating mutations in the human Ca2+o-sensing receptor. J. Biol. Chem. 271, 19537-19544). Untransfected HEK cells or, alternatively, cells transfected and expressing CaSR protein were cultured in Dulbecco's Modified Eagle Medium containing 10% fetal bovine serum and 1% penicillin-streptomycin in 75 cm^2 flasks until they reached confluence. Media was removed from the flasks and cells were loaded by exposure to Loading Buffer (125 mM NaCl, 4 mM KCl, 1.0 mMCaCl2, 1.0 mM MgCl2, 1 mM NaH2PO4, 20 mM HEPES, 1 gm/liter bovine serum albumin, and 1 gm/l glucose, pH ˜7.4, osmolality ˜285) containing 4.1 micromolar FURA2-AM (Molecular Probes Inc. Eugene, Oreg.) for 2 hr. Cells were then scraped from the surface of the flask using a standard cell scraper (Costar 3010, Corning Inc.). Cells were then pelleted from the suspension by low speed centrifugation to remove loading buffer and rinsed twice to remove extracellular FURA2 dye by two sequential suspensions and pelleting steps using low speed centrifugation. Immediately prior to the start of the experiment, cells were resuspended in various experimental buffers for analyses as described below. The Standard Experimental Buffer used for many studies was composed of: 125 mM NaCl, 4 mM KCl, 0.5 mMCaCl2, 0.5 mM MgCl2, 20 mM HEPES, 1 g/l glucose, pH ˜7.4, osmolality ˜285. All other buffers were variations on this basic composition where specific components within the Standard Experimental Buffer were varied while the remaining components were held constant.
Cell suspensions consisting of a total volume of 3 ml were analyzed in a PTI fluorimeter (PTI Model 814 Photomultiplier Detection System equipped with SC-500 Shutter Controller and PTI Driver and Analysis Software) within approximately 20 min after exposure to experimental buffers. Data was acquired using standard ratio image analysis as described previously using a data acquisition rate of 1.3 sec. for 500 or 1000 second intervals.
In selected experiments, the detergent Triton X-100 was added in order to lyse the cells and quantify differences in FURA2 ratio fluorescence. Triton X-100 was added to the cells to obtain a maximal fluorescence signal from the FURA2 for purposes of quantification.
The ability of the CaSR modulator MC0100 to potentiate the response of avian and mammalian CaSRs to the chelated mineral amino acid complex, ZnPro, was tested. For avian CaSR experiments, three individual aliquots from a single pool of HEK cells that stably express the recombinant avian CaSR protein were used for ratio imaging fluorimetry assays of CaSR activation generally as described in Example 6 herein. […] In all aliquots, the detergent Triton X-100 was added as the last addition to lyse the cells (FIG. 29A).
From a single pool of HEK cells stably expressing the avian CaSR, aliquots of cells were removed and analyzed using ratio imaging fluorimetry generally as described in Example 6 herein. After a standard addition of Ca++ to a final concentration of 2.5 mM, either 0.0025%, 0.025% or 0.25% Zinc Proteinate was added followed by a second addition of Ca++ to a final concentration of 7.5 mM. Subsequently, an aliquot of the detergent Triton X-100 was added to lyse the cells. […] The magnitude of the subsequent CaSR response to Ca++ was reduced via increasing Zn Proteinate stimulation.
Fluorimetry analysis was performed on HEK cells expressing the recombinant chicken CaSR protein generally as described in Example 6 herein.

chicken CaSR = test: CaSR dependent ERK 1/2 phosphorylation (Western blot) in HEK cells transfected with chicken CaSR; format: cell-based; conditions: 1 micromolar MC 0100
Description: HEK cells transfected with the chicken CaSR were cultured under standard conditions (DMEM with 10% FCS). Confluent flasks were serum-starved overnight in DMEM supplemented with 0.2% BSA and pre-incubated for 60 min at 37° C. in the following medium: 125 mM NaCl, 4 mM KCl, 20 mM Hepes, 0.1% glucose, 0.8 mM NaH2PO4, 1 mM MgCl2, 0.1% BSA, 0.5 mM CaCl2, pH 7.45. The cells were then incubated in the same medium without BSA in the presence of different mineral chelates at different concentrations (see below) for 15 min at 37° C. At the end of the incubation treatment media was removed and cells were washed with PBS and than lysed in 250 microliter of M-PER lysis buffer (Pierce Chemical Company, Rockford, Ill.) containing 10 ul/ml of protease inhibitors (Pierce Chemical Company, Rockford, Ill.). Cell lysates were centrifuged for 10 min at 4° C. at 14,000×g. The protein content in the supernatants was analyzed using the BCA Protein Assay system from Pierce Chemical Company, Rockford, Ill. Equal amounts of protein (20 ug) were combined with 4× loading buffer and […] DTT, heated to 95° C., separated by SDS gel electrophoresis and electrotransferred to PVD membranes. The membranes were incubated in 1% BSA in TBS-T (TRIS-buffered saline containing Tween 20 at 0.1%) overnight. After 4 washes in TBS-T the membranes were incubated with primary antibody (anti phosphoERK at 1:400 dilution; this antibody recognizes the phosphorylated form of ERK 1/2) for 1.5 hours at room temperatures, washed 4 times and incubated with secondary antibody (anti mouse at 1:50,000 dilution). After 4 washes in TBS-T the membranes were developed using the ECL Western Blotting system.
The experiments described in FIGS. 34 A and B used the following metal chelate treatments: ZnProteinate, CuProteinate and MnProteinate (Balchem Corporation, New Hampton, N.Y.) at the following concentrations: 0.025% and 2.5%, or at a concentration of 0.025% with 1 micromolar MC 0100 (a calcimimetic); or various concentrations of bacitracin Zn.

Structure (SMILES): COc1cccc([C@@H](C)NCCCc2ccccc2)c1 [MC0100]
- effect of prior modulator on CaSR response to 0.25% Mintrex Zn (avian CaSR; 1 micromolar MC0100, buffer 1.5 mM Ca2+): potentiated the response
- effect of modulator on CaSR response to ZnPro (avian CaSR; MC0100 added before ZnPro): potentiates the response
- CaSR response to the modulator itself (avian CaSR; MC0100 at final 1 micromolar, buffer 1.5 mM Ca2+): yielded a response
- CaSR response to stepwise additions (avian CaSR; after addition of 2.5 mM Ca++ (FIG. 36)): increased responses
- effect on ERK1/2 phosphorylation response to 0.025% Cu Proteinate (chicken CaSR): net reduction
- effect on ERK1/2 phosphorylation response to 0.025% Mn Proteinate (chicken CaSR): strongly enhanced
